Data on one compound can be found in patent US20250092058A1 (priority 2018, published 2025).

The test system of series [1] is ABCG2 and Pgp. As to the kind of experiment: Efflux transporter substrate studies. The series is classed as in vitro ADME.
For series [2], the system named is CRC PDX27454 tumors. The conditions noted are these: spray-dried FL118-HPβCD powder in saline with 5% PG, p.o. weekly ×4, half MTD. On the procedure: Colorectal cancer (CRC) patient-derived xenograft (PDX) models were used to evaluate their in vivo antitumor activity. […] Treatments were administered weekly for four weeks on days 0, 7, 14 and 21 and tumor volumes and individual body weights were monitored.
Human xenograft tumors used. In this invention disclose, human SW620 (colorectal), HT29 (colorectal) and HT-3 (retinoblastoma) cancer cell line-established xenograft tumors were used. Human tumor cell line-derived xenograft tumors are initially established by subcutaneously injecting 2-5×10^6 cultured cancer cells in a volume of 100-150 p L medium into the flank area of severe combined immunodeficiency (SCID) mice. The derived tumors are then passed a couple of generations in mice by transplanting 30-50 mg non-necrotic tumor mass via a trocar for experiments or maintenance. […] PDX tumors were originally established on severe Combined Immunodeficiency (SCID) mice from pancreatic and colorectal cancer patient tumor tissues obtained from metastatic sites of the disease in the clinic.
Specifically, PDX tumors were originally established on severe Combined Immunodeficiency (SCID) mice from pancreatic and colorectal cancer patient tumor tissues obtained from metastatic sites of the disease in the clinic. […] The vehicle is the same think aqueous suspension without drug. Experimental SCID mice were subcutaneously implanted with 30-40 mg individual PDX tumors (isolated from maintenance mice) at the flank area for PDX27454 of SCID mice. Treatment with vehicle or a drug of 7Q-series (2) was initiated 7-14 days after the transplanted tumors reached 100-200 mm^3 (designated day 0). The animal model of PDX tumors was orally treated weekly for 4 times (one cycle/course, as shown with black arrows) or only one time drug administration.

The nature of series [3]: FL118 MTD in SCID mice. The series is classed as in vivo.

Each structure is given as a SMILES string.

Take `CC[C@@]1(O)C(=O)OCc2c1cc1n(c2=O)Cc2cc3cc4c(cc3nc2-1)OCO4` [FL118, 10,11-methylenedioxy-camptothecin]: the “substrate of ABCG2 and Pgp” value in series [1] was “not a substrate of ABCG2 and Pgp”. In series [2], the antitumor activity result was “great antitumor activity” and the “toxicity (mouse body weight changes)” value is on record as “no toxicity at all”. In addition, the “maximum tolerated dose (MTD)” value in series [3] (oral formulation, tumor-bearing SCID mice, qw×4) is on record as 10 mg/kg. Moreover, the MTD in series [3] (oral, q1d×5 and q2d×5) was around 1.5 mg/kg. The MTD in series [3] (two doses in SCID mice, estimated) was 12 mg/kg/dose.
